One data set is described as follows: in vivo. Further details: species or system mice. As to conditions: mouse, ip, 10 mg/kg. The protocol:
Female CD-I mice were injected ip with 10 mg/kg of the three polymorphs of the compound of Formula I (CDDO ethyl) and methyl 2-cyano-3,12-dioxoIeana-1,9(11)-dien-28-oate (CDDO methyl) in DMSO-cremphor-PBS (1:1:8 weight by weight or volum by volum). Blood samples were collected at 0.083, 0.25, 0.5, 1, 2, 4, 8, and 24 hr post-dose. The levels were quantified by HPLC/MS using compound add to control blood for standard. PK results are shown at Table 3. The systemic exposure of the three polymorphs of the compound of Formula I of CDDO ethyl is higher than that of CDD) methyl. Following is the order: The glassy solid form of CDDO ethyl>Crystalline Form II of CDDO ethyl>Crystalline Form I of CDDO ethyl>CDDO Methyl

The nature of data set [1]: Stability determination of polymorphs (XRD) at 25° C./60% R.H. and 40° C./75% R.H. It counts as physicochemical. The protocol: Other polymorphs of this invention were used similar in the study.
The glassy solid Form of the compound of Formula I, prepared as described in Example 4, was test at 25° C./60% R.H. and 40° C./75% R.H for one week.

In data set [2] the test system is NO production induced by IFN-g in mouse macrophages (RAW 264.7 cells). The data set is described as follows: Measurement of NO in RAW 264.7 cells induced by IFN-γ. The format is cell-based. Conditions: RAW264.7 cells, 10 ng/ml IFN-γ, 48 hours. The method, then:
Assay Protocol Procedures
1 Maintained RAW264.7 cells in DMEM with 10% FBS at 37° C., 5% CO2.
Induction of NO in RAW264.7 Cells
1. The cells were seeded at 1×10^5/well onto 96-well cell culture plate.
2. After incubation for 2 hours at 37° C. under 5% CO2, the nonadherent cells were removed by aspiration and freshly prepared complete medium with 10 ng/ml IFN-γ and dilluted compounds was added.
3. Incubated the cells at 37° C. under 5% CO2 for another 48 hours.
Measurement of NO in RAW Cells
1. Centrifuged at 1000 rpm for 5 minutes to collect supernatant medium.
2. Prepared 1 ml of a 100 μM nitrite solution by diluting the provided 0.1 M Nitrite Standard 1:1,000 in the matrix or buffer used for the experimental samples.
4. Allowed the Sulfanilamide Solution and NED Solution to equilibrate to room temperature (15-30 minutes).
5. Added 50 μl of each experimental sample to wells in duplicate.
6. Used a multichannel pipettor to dispense 50 μl of the Sulfanilamide Solution to all experimental samples and wells containing the dilution series for the Nitrite Standard.
7. […]
10. Measured absorbance within 30 minutes in a plate reader with a filter between 520 nm and 550 nm.
The inhibitory activities [as measured by the IC50 (nM) value] of Crystalline Form II of the compound of Formula I (CDDO ethyl ester) on NO production induced by IFN-g in mouse macrophages 17 are shown in FIG. 5.

The mark [3] stands for this setting: 25° C./60% R.H. and 40° C./75% R.H.

One may read the AUC(0-inf) as total exposure, with the tail of the curve extrapolated. The low end stands for low exposure, the high end for high exposure. The term AUC(0-t) denotes exposure summed from dosing to a finite time, without extrapolation to infinity. Read a high AUC(0-t) as more exposure. Broadly, the Cmax is the peak of the concentration-time curve. Broadly, the half-life is the time needed for the level to fall by half in the phase considered. Higher therefore signals slow decline. In the data set “in vivo” (female, CD-I), `COC(=O)[C@]12CCC(C)(C)C[C@H]1[C@H]1C(=O)C=C3[C@@]4(C)C=C(C#N)C(=O)C(C)(C)[C@@H]4CC[C@@]3(C)[C@]1(C)CC2` [CDDO Methyl Ester, methyl 2-cyano-3,12-dioxoIeana-1,9(11)-dien-28-oate, reference compound] gave an AUC(0-inf) of 1970 ng·h/mL, an AUC(0-t) of 1800 ng·h/mL, a Cmax of 363 ng/mL and a half-life of 396 min. In “in vivo” (female, CD-I), this compound came in with a tmax of 48 min.

Regarding “ethyl 2-cyano-3,12-dioxoIeana-1,9(11)-dien-28-oate [Crystalline Form I of CDDO ethyl]”, in the data set “in vivo”, the AUCInf is 3456 ng·h/mL, the AUClast came out at 3221 ng·h/mL, the Cmax was 466 ng/mL and the t1/2 came to 8.3 h. The same compound came in with a tmax in “in vivo” of 48 min.

The IC50 is the concentration at which inhibition is half-maximal. Lower therefore signals greater potency in that assay. For the compound “ethyl 2-cyano-3,12-dioxoIeana-1,9(11)-dien-28-oate [Crystalline Form II of CDDO ethyl]”, in “in vivo”, the AUCInf was determined as 3840 ng·h/mL, the AUClast was 3443 ng·h/mL, the Cmax was found to be 482 ng/mL and the t1/2 turned out to be 7.3 h. Further, the tmax in “in vivo” is 48 min. In addition, in data set [1] (setting [3]), the “change of XRD on storage” value is reported as “no significant change of XRD” and the “thermodynamic stability compared to other polymorphs” value is on record as “most thermodynamically stable crystal form”. For the same compound, inhibition in data set [2] (listed as Crystalline Form II of the compound of Formula I (CDDO ethyl ester)) was half-maximal at 34 nM (IC50).

In the data set “in vivo”, “ethyl 2-cyano-3,12-dioxoIeana-1,9(11)-dien-28-oate [The glassy solid form of CDDO ethyl]” showed an AUCInf of 7526 ng·h/mL, an AUClast of 4721 ng·h/mL, a Cmax of 513 ng/mL and a t1/2 of 16.1 h. In the data set “in vivo”, this compound yielded a tmax of 48 min. For the same compound, the “change of XRD on storage” value in data set [1] (25° C./60% R.H. and 40° C./75% R.H for one week) is “no significant change of XRD”. In data set [2] (listed as glassy solid form of the compound of Formula I (CDDO ethyl ester)), this compound registered an IC50 of 32 nM.

The record behind these values is US9656951B2, “Polymorphs of CDDO ethyl ester and uses thereof” (Applied Pharmaceutical Science, Inc., priority 2012, dated 2017).
